The record followed here is ChEMBL document CHEMBL3259654, “Dihydrothiophene-condensed chromones from a marine-derived fungus Penicillium oxalicum and their structure-bioactivity relationship” (Bioorg Med Chem Lett, 2014).

The subject of one data set is MOLT-4. In words: Cytotoxicity against human MOLT4 cells by MTT assay. Format: functional, cell-based.
The test system of the next data set is NCI-H1975. In words: Cytotoxicity against human NCI-H1975 cells by MTT assay. The format is functional, cell-based. (In general: Tetrazolium assays rely on reduction of a dye to a coloured formazan, in cell work by metabolically active cells.)
The next data set concerns U-937. In words: Cytotoxicity against human U937 cells by MTT assay. The format is functional, cell-based.
A further data set has as its system K562. In words: Cytotoxicity against human K562 cells by MTT assay. Format: functional, cell-based.
The next data set relates to HL-60. In words: Cytotoxicity against human HL60 cells by MTT assay. The format is functional, cell-based.
Data set [1] in a line: Cytotoxicity against human BGC823 cells by MTT assay. Format: functional, cell-based. Conditions: BGC-823.
Another data set concerns MCF7. In words: Cytotoxicity against human MCF7 cells by MTT assay. The format is functional, cell-based.
Data set [2] is described as follows: Cytotoxicity against human HuH7 cells by MTT assay. The format is functional, cell-based. The note with it: Huh-7.
A short description of data set [3]: Retention time of the compound by HPLC analysis. Format: physicochemical.

Consider `COC(=O)C[C@](O)(C(=O)OC)[C@@H]1Cc2c(oc3cc(C)cc(O)c3c2=O)S1`, for which the IC50 (commonly the concentration at which inhibition is half-maximal) in the data set on MOLT-4 stood at 1.36 µM; with NCI-H1975, 5.45 µM; with U-937 it was 4.16 µM; in the data set on K562 it was 8.8 µM; in the data set on HL-60, 2.96 µM; in data set [1], 1.96 µM. Besides, the values for the IC50 (with MCF7; in data set [2]) were 4.32 µM and 6.33 µM, respectively.
With `COC(=O)[C@@H](C[C@](O)(C(=O)OC)[C@@H]1Cc2c(oc3cc(C)cc(OC(=O)c4ccc([N+](=O)[O-])cc4)c3c2=O)S1)OC(=O)c1ccc([N+](=O)[O-])cc1`, the IC50 worked out at 2.96 µM in the data set on MOLT-4; 6.34 µM in the data set on U-937; 1.04 µM with K562; 3.09 µM in the data set with HL-60; 4.49 µM in [1]; 6.05 µM in the data set on MCF7. This molecule displayed an IC50 in [2] of 8.77 µM.
As for `COC(=O)[C@H](O)C[C@](O)(C(=O)OC)[C@H]1Cc2c(oc3cc(C)cc(O)c3c2=O)S1`, the figures for the IC50 in the data set on MOLT-4, in the data set with U-937 and in the data set with HL-60 were 2.3 µM, 5 µM and 6.41 µM, respectively.
As for `COC(=O)[C@@H](C[C@](O)(C(=O)OC)[C@H]1Cc2c(oc3cc(C)cc(O)c3c2=O)S1)OC(=O)[C@@](OC)(c1ccccc1)C(F)(F)F`, the IC50 with MOLT-4 is 6.03 µM; in the data set on HL-60, 9.14 µM; in [1], 8.81 µM.
In the case of `COC(=O)[C@@](O)(C[C@@H](O)C(=O)O)[C@@H]1Cc2c(oc3cc(C)cc(O)c3c2=O)S1`, the results for the IC50 (in the data set with MOLT-4; in data set [1]) were 5.74 µM and 10.1 µM, respectively. Also, in [3], the Retention_time turned out to be 23.144 min.
On to `COC(=O)[C@H](O)C[C@](O)(C(=O)OC)[C@@H]1Cc2c(oc3cc(C)cc(O)c3c2=O)S1`, for which the IC50 with MOLT-4 amounted to 0.3 µM; in the data set on NCI-H1975, 10.4 µM; in the data set with U-937, 2.35 µM; with K562 it was 4.53 µM; in the data set with HL-60, 2.55 µM; in [1], 4.89 µM. In addition, the 50% inhibitory concentration (IC50) with MCF7 was 11.3 µM; in data set [2], 9.49 µM. The same molecule registered a Retention_time in data set [3] of 24.796 min.
On to `COC(=O)[C@@H](C[C@](O)(C(=O)OC)[C@@H]1Cc2c(oc3cc(C)cc(O)c3c2=O)S1)OC(=O)[C@](OC)(c1ccccc1)C(F)(F)F`, for which the IC50 in the data set with MOLT-4 came to 5.89 µM; in the data set with U-937, 9.85 µM; in data set [1], 8.82 µM.
With `COC(=O)[C@@H](C[C@](O)(C(=O)OC)[C@@H]1Cc2c(oc3cc(C)cc(O)c3c2=O)S1)OC(=O)c1ccc([N+](=O)[O-])cc1`, the IC50 is 3.66 µM in the data set on MOLT-4; 6.97 µM in the data set with NCI-H1975; 6.37 µM in the data set with U-937; 9.68 µM in the data set with K562; 3.96 µM with HL-60; 8.01 µM in data set [1]. Also, the results for the IC50 (with MCF7; in [2]) were 7.37 µM and 6 µM, respectively.
Take `COC(=O)[C@@H](C[C@](O)(C(=O)OC)[C@@H]1Cc2c(oc3cc(C)cc(O)c3c2=O)S1)OC(=O)[C@@](OC)(c1ccccc1)C(F)(F)F`: the IC50 in the data set with MOLT-4 amounted to 4.81 µM; with U-937 it was 9.04 µM; in the data set with K562, 1.34 µM; in the data set on HL-60, 7.54 µM; in [1] it was 5.53 µM.
Consider `COC(=O)[C@@H](C[C@](O)(C(=O)OC)[C@@H]1Cc2c(oc3cc(C)cc(O)c3c2=O)S1)OC(=O)c1cc(C(F)(F)F)cc(C(F)(F)F)c1`, for which the IC50 with MOLT-4 turned out to be 3.02 µM; in the data set on NCI-H1975, 2.33 µM; in the data set on U-937, 4.06 µM; in the data set on K562, 6.9 µM; with HL-60 it was 3.79 µM; in data set [1] it was 3.95 µM. In addition, in the data set with MCF7, the IC50 is 6.94 µM.
Turning to `COC(=O)[C@@H](C[C@](O)(C(=O)OC)[C@@H]1Cc2c(oc3cc(C)cc(OC(=O)c4ccccc4)c3c2=O)S1)OC(=O)c1ccccc1`, the results for the IC50 in the data set on MOLT-4 and in the data set with HL-60 were 3.99 µM and 4.46 µM, respectively.
For the molecule `COC(=O)[C@@H](C[C@](OC(=O)c1cc(C(F)(F)F)cc(C(F)(F)F)c1)(C(=O)OC)[C@@H]1Cc2c(oc3cc(C)cc(OC(=O)c4cc(C(F)(F)F)cc(C(F)(F)F)c4)c3c2=O)S1)OC(=O)c1cc(C(F)(F)F)cc(C(F)(F)F)c1`, in the data set on U-937, half-maximal inhibition (IC50) required 7.2 µM.
